Common to all, as to format: cell-based, mouse
Assay [1] relates to RAW 264.7 cells. The assay can be described thus: RT-qPCR mRNA expression. The following applies: RAW 264.7, 3 μM. As for the experimental part: (§1) Total RNA was extracted using the SV Total RNA Isolation kit (Promega) following the supplier's instructions. cDNA was synthesized from about 0.5 μg RNA using the First Strand cDNA Synthesis kit (Roche) as described by the supplier. The resulting cDNAs were subjected to quantitative PCR amplification with a real-time cycler using the QUANTITECT™ SYBR® Green PCR Kit (Qiagen, Hilden, Germany) for the genes Alpl, Fas, Lox, Tet1, Tet2, and TAQMAN® Gene expression Master Mix (Applied Biosystems, Foster City, Calif., USA) for measuring Runx2, Bglap2, Colla1, Tnfsf11, and 18S rRNA expression (for primers, see Table 1). SYBR-Green RT-qPCR was started with an initial denaturation step at 95° C. for 10 minutes and then continued with 45 cycles consisting of 30 seconds denaturation at 95° C., 30 seconds annealing at primer-specific temperatures, and extension at 72° C. For measurement of the TAQMAN® assays, an initial denaturation at 95° C. for 10 minutes was applied, followed by 45 cycles alternating 60 seconds at 60° C. and 15 seconds at 95° C. All RT-qPCR assays were performed in triplicate, and expression was evaluated using the comparative quantification method (Pfaffl, Nucleic Acids Res., 29:e45 (2001)).
For orientation: In qPCR the cycle at which signal appears reflects the starting amount.

In assay [2] the test system is MC3T3-E1 cells. Put plainly: RT-qPCR mRNA expression. The note with it: MC3T3-E1, 3 μM; for mRNA expression of Bglap2, Colla1, Lox and Alpl: 14 days. How it is done: as §1
The test system of assay [3] is MLO-Y4 cells. The assay can be described thus: RT-qPCR mRNA expression. The following applies: MLO-Y4, 3 μM. As for the experimental part:
as §1

The subject of assay [4] is neonatal calvarial explants. Put plainly: ECM mineralization by Alizarin Red stain in calvarial explants. The note with it: newborn calvarial explants, 3 μM. As for the experimental part: Calvariae from 2 to 3-day-old and from 7-week old C57BL/6 mice were dissected aseptically. The calvarial bone explants were cultured in 48-well plates in α-MEM (Biochrom) containing 10% FCS (Biochrom), 50 μg/mL ascorbic acid (Sigma-Aldrich), 5 mM β-glycerophosphate (Sigma-Aldrich), and 10 μg/mL gentamicin (Sigma-Aldrich). […] Thereafter, one part of the calvariae were fixed for 1 hour in 4% para-formaldehyde (PFA), and mineralization was measured by Alizarin Red S stain (Sigma-Aldrich). For this purpose, Alizarin Red S dye was extracted using 10% cetylpyridinium chloride (CPC) in 10 mM sodiumphosphate (pH=7.0) for 45 minutes at room temperature. Alizarin Red S absorbance was measured at 562 nm in a multi-plate reader (Tecan, Maennedorf, Switzerland) and normalized to total protein amount measured by bicinchoninic acid assay (Thermo Fisher Scientific, Waltham, Mass., USA). From the other part of the calvariae, total RNA was extracted.

Assay [5] deals with RAW 264.7 cells. The assay can be described thus: Caspase activity (CASPASE-GLO). The following applies: RAW 264.7, 3 μM, 24 hours. As for the experimental part:
(§2) Caspase 3/7 and caspase 8 activities were measured by using the CASPASE-GLO® 3/7 and CASPASE-GLO® 8 assay Kit (Promega, Madison, Wis., USA) following manufactures instructions. Briefly, after treatments, cells were lysed, and substrate cleavage by caspases was measured by the generated luminescent signal with a 96 multi-well luminometer (Glomax, Promega). Each experiment was performed in quintuplicate and experiments were carried out twice.

In assay [6] the test system is MC3T3-E1 cells. Put plainly: Caspase activity (CASPASE-GLO). The note with it: MC3T3-E1, 3 μM, 24 hours. As for the experimental part: as §2
The subject of assay [7] is MLO-Y4 cells. Put plainly: Caspase activity (CASPASE-GLO). The note with it: MLO-Y4, 3 μM, 24 hours. As for the experimental part: as §2
The subject of assay [8] is RAW 264.7 cells. Put plainly: Cell count (proliferation/viability). The following applies: RAW 264.7, 24 hours, doses of 3 μM and higher. How it is done: Cell lines were seeded in 24-well culture dishes at a density of 20,000/cm^2 and were either left untreated (controls) or treated with L- or DL-SFN at the indicated concentrations for up to 48 hours. Thereafter, cells were detached with 0.001% pronase E, and the number of viable cells was assessed with Casy cell counter (Schaerfe Systems, Reutlingen, Germany). Each experiment was performed in quadruplicate, and experiments were carried out twice. For long term experiments, cell number was determined using DNA amount as surrogate. Cell layers were washed with PBS and fixed for 20 minutes with 4% PFA. Thereafter, Hoechst 33258 dye (Polysciences, Warrington, Pa., USA) was added (1 μg/mL), and, after an incubation of 15 minutes at room temperature, the fluorescence was measured (excitation 360, emission 465 nm). The amount of DNA was estimated using a standard curve prepared from calf thymus DNA (Roche).

The test system of another assay is BMSCs. The assay can be described thus: ECM mineralization by Alizarin Red stain. The following applies: long-term treatment in osteogenic media. As for the experimental part:
Mouse bone marrow mesenchymal stem cells were isolated from aseptically dissected long bones of 6-week old C57BL/6 mice (Himberg, Austria). The marrow cavities were flushed with sterile medium using a 25-gauge needle, and the culture was established in α-MEM supplemented with 10% FCS and […]. After 48 hours of culture at 5% CO2 and 37° C., the non-adherent cells were removed by gentle rinsing with PBS. At confluence, cells were harvested and seeded at a density of 3,000/cm^2 for cell experiments. For osteogenic differentiation, cells were cultured in α-MEM supplemented with 10% FBS, […], 100 nM dexamethasone, 10 mM β-glycerophosphate, and 50 μg/mL ascorbic acid with or without L- or DL-SFN. Culture medium was renewed twice a week, and cells were cultured for the periods indicated in the result section.
Calvariae from 2 to 3-day-old and from 7-week old C57BL/6 mice were dissected aseptically. […] Thereafter, one part of the calvariae were fixed for 1 hour in 4% para-formaldehyde (PFA), and mineralization was measured by Alizarin Red S stain (Sigma-Aldrich). […] Alizarin Red S absorbance was measured at 562 nm in a multi-plate reader (Tecan, Maennedorf, Switzerland) and normalized to total protein amount measured by bicinchoninic acid assay (Thermo Fisher Scientific, Waltham, Mass., USA). […]

SMILES strings stand for the structures.

Regarding `C[S+]([O-])CCCCN=C=S` [L-SFN], the “expression of the pro-apoptotic gene Fas” value is given as “not at 8 hours” in the assay on RAW 264.7 cells [1] (8 hours) and “up-regulated” in the assay with RAW 264.7 cells [1] (16 hours). The “Fas mRNA expression” value in the assay on MC3T3-E1 cells [2] (8 hours) and in the assay on MLO-Y4 cells [3] (8 hours) was “not affected” throughout. In the assay with MC3T3-E1 cells [2], the “mRNA expression of Bglap2, Colla1, Lox and Alpl” value is “increased”. For the same compound, the ECM mineralization entry (in assay [4]; in the assay with BMSCs) was “significantly increased” throughout. For the same compound, the “Caspase 8 and Caspase 3/7 activity” value with RAW 264.7 cells [5] is given as “stimulated”. The “activity of caspase 8” value with MC3T3-E1 cells [6] and with MLO-Y4 cells [7] was “significantly increased” each time. Besides, in the assay with RAW 264.7 cells [8], the “number of viable cells” value is given as “reduced”.

For the compound `C[S+]([O-])CCCCN=C=S` (racemic) [DL-SFN], in the assay with RAW 264.7 cells [1] (8 and 16 hours, Tet2 not upregulated), the “Tet1 mRNA levels” value is recorded as “upregulated”. Moreover, the “expression of the pro-apoptotic gene Fas” value in the assay with RAW 264.7 cells [1] (8 hours) is reported as “not at 8 hours”; with RAW 264.7 cells [1] (16 hours) it was “up-regulated”. Besides, the “Runx2 mRNA expression” value in the assay on MC3T3-E1 cells [2] is reported as “stimulates”. Further, the “Fas mRNA expression” value is “not affected” with MC3T3-E1 cells [2] (8 hours), “significantly increased” in the assay with MC3T3-E1 cells [2] (16 hours), “not affected” in the assay on MLO-Y4 cells [3] (8 hours) and “significantly increased” in the assay with MLO-Y4 cells [3] (16 hours). Also, the “mRNA expression of Bglap2, Colla1, Lox and Alpl” value in the assay on MC3T3-E1 cells [2] is “increased”. Also, in the assay with MLO-Y4 cells [3], the “mRNA expression for Tet1 or Tet2” value is listed as “did not positively change”. In the assay with MLO-Y4 cells [3] (3 and 8 days, significant only at 8 days), the “Tnfsf11 mRNA expression” value is “reduced”. Moreover, the ECM mineralization entry (in [4]; in the assay on BMSCs) was “significantly increased” each time. Besides, the “Caspase 8 and Caspase 3/7 activity” value in the assay with RAW 264.7 cells [5] is listed as “stimulated”. The “activities of the caspases 3/7” value in the assay with MC3T3-E1 cells [6] and in the assay with MLO-Y4 cells [7] was “significant increase” throughout. Besides, the “activity of caspase 8” value with MC3T3-E1 cells [6] and in the assay with MLO-Y4 cells [7] was “significantly increased” throughout. In the assay with RAW 264.7 cells [8], the “number of viable cells” value is “reduced”.

The values are drawn from US20180133211A1, “METHODS AND MATERIALS FOR PROMOTING BONE FORMATION” (Mayo Foundation for Medical Education and Research, priority 2015, published 2018).
